In assay [1] the target is T1, Gal-3–Gal-3 (Homo sapiens, UniProt P17931).
T1 construct: gene LGALS3; engineered covalent homodimer: two Gal-3 CRDs fused directly C- to N-terminus in one polypeptide, no tail; recombinant from bacteria
The assay can be described thus: inhibition of biotinylated lectin staining, fixed murine jejunum sections. The following applies: 0.5 mM Lac as part of glycocluster; labelled lectin 0.25 µg/mL.

Assay [2] has as its target T2, Gal-3 (full-length wild-type human galectin-3) (Homo sapiens, UniProt P17931).
T2 construct: gene LGALS3; full-length with N-terminal tail (two Ser phosphorylation sites, nine collagen-like repeats) and CRD; monomeric in solution; biotinylated for tissue sections
The assay is described as above. The settings on record: 0.5 mM Lac as part of glycocluster; labelled lectin 4 µg/mL.

For assay [3], the target named is T1, Gal-3–Gal-3. The experiment in a line: isothermal titration calorimetry. It is filed as binding. The settings on record: 25 °C, pH 7.2, 20 mM phosphate, 10 mM NaCl, 2 mM β-mercaptoethanol, one-set-of-sites model, dissolved and dialyzed. The text has this: isothermal titration calorimetry on Gal-3–Gal-3
(ITC needs no label: the signal is the heat of the interaction.)

The target of assay [4] is T2, Gal-3 (full-length wild-type human galectin-3). The assay can be described thus: isothermal titration calorimetry. It counts as binding. The following applies: 25 °C, pH 7.2, 20 mM phosphate, 10 mM NaCl, 2 mM β-mercaptoethanol; one-set-of-sites model; lyophilized protein. An excerpt:
isothermal titration calorimetry on Gal-3 (full-length wild-type human galectin-3)

The target in the next assay is T3, Gal-3–8S–Gal-3 (Homo sapiens, UniProt P17931).
T3 construct: gene LGALS3; engineered covalent homodimer: two Gal-3 CRDs joined by the 33-residue Gal-8S linker peptide in one polypeptide, no tail; recombinant from bacteria
The assay can be described thus: isothermal titration calorimetry. It counts as binding. The settings on record: 25 °C, pH 7.2, 20 mM phosphate, 10 mM NaCl, 2 mM β-mercaptoethanol; one-set-of-sites model; lyophilized protein. An excerpt:
isothermal titration calorimetry on Gal-3–8S–Gal-3

The target in the next assay is T4, Gal-3 CRD (trGal-3) (Homo sapiens, UniProt P17931).
T4 construct: gene LGALS3; C-terminal carbohydrate recognition domain only, N-terminal tail proteolytically removed; recombinant from bacteria
The experiment in a line: isothermal titration calorimetry. It is filed as binding. The settings on record: 25 °C, pH 7.2, 20 mM phosphate, 10 mM NaCl, 2 mM β-mercaptoethanol; one-set-of-sites model; lyophilized protein. The text has this:
isothermal titration calorimetry on Gal-3 CRD (trGal-3)

The target of a further assay is T5, Gal-3–Gal-1.
T5 construct: gene LGALS3; engineered heterodimer in one polypeptide: N-terminal Gal-3 CRD fused directly to Gal-1 CRD; recombinant from bacteria
The assay can be described thus: isothermal titration calorimetry. It counts as binding, Homo sapiens. The settings on record: 25 °C, pH 7.2, 20 mM phosphate, 10 mM NaCl, 2 mM β-mercaptoethanol; one-set-of-sites model; protein precipitated, dissolved and dialyzed. An excerpt: isothermal titration calorimetry on Gal-3–Gal-1

The target of another assay is T6, Gal-1–8S–Gal-3.
T6 construct: gene LGALS1; engineered heterodimer in one polypeptide: N-terminal Gal-1 CRD, 33-residue Gal-8S linker, Gal-3 CRD; recombinant from bacteria
The experiment in a line: isothermal titration calorimetry. It is filed as binding, Homo sapiens. The following applies: 25 °C, pH 7.2, 20 mM phosphate, 10 mM NaCl, 2 mM β-mercaptoethanol; one-set-of-sites model; lyophilized protein (first of two preparations). An excerpt:
isothermal titration calorimetry on Gal-1–8S–Gal-3

The next assay deals with T7, Gal-3–8S–Gal-1.
T7 construct: gene LGALS3; engineered heterodimer in one polypeptide: N-terminal Gal-3 CRD, 33-residue Gal-8S linker, Gal-1 CRD; recombinant from bacteria
The assay can be described thus: isothermal titration calorimetry. It is filed as binding, Homo sapiens. The settings on record: 25 °C, pH 7.2, 20 mM phosphate, 10 mM NaCl, 2 mM β-mercaptoethanol; one-set-of-sites model; lyophilized protein (first of two preparations). The text has this:
isothermal titration calorimetry on Gal-3–8S–Gal-1

The next assay addresses T8, Gal-1–Gal-3.
T8 construct: gene LGALS1; engineered heterodimer in one polypeptide: N-terminal Gal-1 CRD fused directly to Gal-3 CRD; recombinant from bacteria
The experiment in a line: isothermal titration calorimetry. It counts as binding, Homo sapiens. The settings on record: 25 °C, pH 7.2, 20 mM phosphate, 10 mM NaCl, 2 mM β-mercaptoethanol; one-set-of-sites model; protein precipitated, dissolved and dialyzed. The text has this:
isothermal titration calorimetry on Gal-1–Gal-3

T1 sequence (P17931 114-250 limits assumed): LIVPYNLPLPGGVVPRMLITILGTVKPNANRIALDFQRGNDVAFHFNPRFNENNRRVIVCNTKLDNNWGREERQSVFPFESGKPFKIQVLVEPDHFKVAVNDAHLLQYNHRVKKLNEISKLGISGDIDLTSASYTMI
T2 sequence (P17931 2-250): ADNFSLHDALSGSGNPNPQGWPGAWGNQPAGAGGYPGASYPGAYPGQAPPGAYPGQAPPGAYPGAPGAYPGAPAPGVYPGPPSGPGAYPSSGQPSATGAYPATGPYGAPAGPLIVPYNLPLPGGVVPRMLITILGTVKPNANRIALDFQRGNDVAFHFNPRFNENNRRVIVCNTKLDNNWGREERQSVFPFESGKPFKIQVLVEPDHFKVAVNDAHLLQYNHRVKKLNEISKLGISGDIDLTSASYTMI
T4 sequence (P17931 114-250 limits assumed): as the sequence (P17931 114-250 limits assumed) above
T3 sequence (P17931 114-250 limits assumed): as above

As to `OC[C@H]1O[C@@H](O[C@H]2[C@H](O)[C@@H](O)[C@H](n3cc(COc4ccc(C(=C(c5ccc(OCc6cn([C@@H]7O[C@H](CO)[C@@H](O[C@@H]8O[C@H](CO)[C@H](O)[C@H](O)[C@H]8O)[C@H](O)[C@H]7O)nn6)cc5)c5ccc(OCc6cn([C@@H]7O[C@H](CO)[C@@H](O[C@@H]8O[C@H](CO)[C@H](O)[C@H](O)[C@H]8O)[C@H](O)[C@H]7O)nn6)cc5)c5ccc(OCc6cn([C@@H]7O[C@H](CO)[C@@H](O[C@@H]8O[C@H](CO)[C@H](O)[C@H](O)[C@H]8O)[C@H](O)[C@H]7O)nn6)cc5)cc4)nn3)O[C@@H]2CO)[C@H](O)[C@@H](O)[C@H]1O` [compound 2], the staining inhibition result was “extent of binding of the Gal-3–Gal-3 homodimer was less potently reduced” on Gal-3–Gal-3 [1] and “Signal for binding of Gal-3 was strongly reduced in cells of the villi” in assay [2].

Consider `CC(=O)N[C@H]1C(O)O[C@H](CO)[C@H](O)[C@@H]1O[C@@H]1O[C@H](CO)[C@H](O)[C@H](O)[C@H]1O` (some centres unmarked) [Galβ1,3GalNAc], for which the equilibrium dissociation constant (Kd) – broadly, a measure of binding affinity in units of concentration – at Gal-3–Gal-3 [3] (protein precipitated) stood at 288 ± 3.01 µM; in assay [4], 222 ± 18.5 µM; on Gal-3–8S–Gal-3 it was 157 ± 4.69 µM; at Gal-3 CRD (trGal-3), 264 ± 13.7 µM.

For `CC(=O)N[C@H]1C(O)O[C@H](CO)[C@@H](O[C@@H]2O[C@H](CO)[C@H](O)[C@H](O)[C@H]2O)[C@@H]1O` (some centres unmarked) [LacNAc], the dissociation constant Kd on Gal-3–Gal-3 [3] (protein precipitated with ammonium sulfate) turned out to be 36.2 ± 0.78 µM; in assay [4] it was 37.5 ± 0.48 µM; at Gal-3–Gal-1, 49.7 ± 0.95 µM; at Gal-1–8S–Gal-3 it was 48 ± 1.71 µM; on Gal-3–8S–Gal-3 it was 29.4 ± 0.92 µM; on Gal-3–8S–Gal-1, 60 ± 1.1 µM. The Kd was 59 ± 1.45 µM at Gal-1–Gal-3 and 45.6 ± 1.64 µM on Gal-3 CRD (trGal-3).

(Values after PMC7429544, “Influence of protein (human galectin-3) design on aspects of lectin activity” (Histochemistry and Cell Biology, 2020).)
